From PMC3894558, “Chemical signatures and new drug targets for gametocytocidal drug development” (Scientific Reports, 2014)
Counter-ions that a name gives are not always drawn. Like-named read-outs stand apart in the source and are kept apart here.

Assays:
[1] = system: P. falciparum 3D7 gametocytes; experiment: alamarBlue gametocyte viability assay, strain 3D7; format: cell-based, Plasmodium falciparum
[2] = system: P. falciparum HB3 gametocytes; experiment: alamarBlue gametocyte viability assay, strain HB3; format: cell-based, Plasmodium falciparum
[3] = system: P. falciparum Dd2 gametocytes; experiment: alamarBlue gametocyte viability assay, strain Dd2; format: cell-based, Plasmodium falciparum
HepG2 cells = experiment: cells; conditions: Homo sapiens; for Emax: HepG2, read-out: % Max response; for IC50: HepG2, read-out: IC50 in HepG2 cells
Description: Growth medium was made with Dulbecco's Modified Eagle Medium with 10% fetal bovine serum (FBS).

[4] = system: P. falciparum asexual parasites; parameters: method as in earlier work; conditions: SI Table 3, previous screens, cited from earlier work; for IC50: read-out: Activity against asexual parasites IC50
[5] = Plasmodium falciparum, 3D7, P. falciparum 3D7 gametocytes, mean of at least 3 independent experiments, read-out: Gametocyte IC50
[6] = Plasmodium falciparum, 3D7, strain profiling, 11 concentrations, 1:3 dilution, three times, read-out: 3D7-gametocytes IC50
[7] = Plasmodium falciparum, HB3, strain profiling, 11 concentrations, 1:3 dilution, three times, read-out: HB3-gametocytes IC50
[8] = Plasmodium falciparum, DD2, strain profiling, 11 concentrations, 1:3 dilution, three times, read-out: Dd2-gametocytes IC50
[9] = Plasmodium falciparum, 3D7, SI Table 3, structure clusters, read-out: Activity against gametocytes IC50
[10] = SI Table 3, structure clusters, read-out: Activity against gametocytes IC50
[11] = Plasmodium falciparum, 3D7, SI Table 3, structure clusters, read-out: Activity against gametocytes Efficacy (% response)
[12] = Plasmodium falciparum, DD2, read-out: Dd2-gametocytes IC50
[13] = Plasmodium falciparum, P. falciparum 3D7 gametocytes, mean of at least 3 independent experiments, read-out: Gametocyte IC50
[14] = Plasmodium falciparum, HB3, read-out: HB3-gametocytes IC50

CC(C)C[C@H](NC(=O)[C@H](CCc1ccccc1)NC(=O)CN1CCOCC1)C(=O)N[C@@H](Cc1ccccc1)C(=O)N[C@@H](CC(C)C)C(=O)[C@@]1(C)CO1 [Carfilzomib]
IC50 [1, 5]: 0.012 µM
IC50 [1, 6]: 0.004 µM
IC50 [2, 7]: 0.003 µM
IC50 [3, 8]: 0.002 µM
Emax (HepG2 cells): -79%
IC50 (HepG2 cells): 1.18 µM

CN1C[C@H](CNC(=O)OCc2ccccc2)C[C@@H]2c3cccc4c3c(cn4C)C[C@H]21 [Metergoline, reference compound]
IC50 [1, 9]: 12.6 µM
IC50 [1, 10]: 22.4 µM
Activity against asexual parasites Efficacy (% response) [4]: -71.24 % response
IC50 [4]: 12.6 µM

CO[C@]12C[C@@H](COC(=O)c3cncc(Br)c3)CN(C)[C@@H]1Cc1cn(C)c3cccc2c13 [Nicergoline, reference compound]
Emax [1, 11]: 39.4%
IC50 [1, 9]: 22.4 µM
Activity against asexual parasites Efficacy (% response) [4]: inactive
Activity against asexual parasites IC50 [4]: inactive

CN(C)CCC=C1c2ccccc2C=Cc2ccccc21 [Cyclobenzaprine hydrochloride, reference compound]
Emax [1, 11]: 94.8%
IC50 [1, 9]: 5.62 µM
IC50 [1, 10]: 10 µM
Activity against asexual parasites Efficacy (% response) [4]: inactive
Activity against asexual parasites IC50 [4]: inactive

CN1C[C@@H](NS(=O)(=O)N(C)C)C[C@@H]2c3cccc4c3c(cn4C)C[C@H]21 [Mesulergine, reference compound]
Emax [1, 11]: 64%
IC50 [1, 9]: 35.5 µM
Activity against asexual parasites Efficacy (% response) [4]: inactive
Activity against asexual parasites IC50 [4]: inactive

[O-][n+]1ccccc1SSc1cccc[n+]1[O-] [Dipyrithione]
IC50 [1, 5]: 0.263 µM
IC50 [2, 7]: 0.743 µM
IC50 [3, 12]: 0.59 µM
Emax (HepG2 cells): -93%
IC50 (HepG2 cells): 10.8 µM

Cc1[nH]c2ccccc2c1CCNCc1ccc(/C=C/C(=O)NO)cc1 [Panobinostat]
IC50 [1, 5]: 0.935 µM
IC50 [2, 7]: 0.148 µM
IC50 [3, 8]: 0.118 µM
Emax (HepG2 cells): -74%
IC50 (HepG2 cells): 0.372 µM

CN(C)CCC=C1c2ccccc2C(C)(C)c2ccccc21.Cl [Melitracen hydrochloride, reference compound]
Activity against gametocytes Efficacy (% response) ([1]; SI Table 3, structure clusters): -103.56 % response
IC50 [1, 10]: 35.5 µM
Activity against asexual parasites Efficacy (% response) [4]: inactive
Activity against asexual parasites IC50 [4]: inactive

CN(CCCN1c2ccccc2CCc2ccccc21)CC(=O)c1ccc(Cl)cc1 [Lofepramine hydrochloride, reference compound]
Emax [1, 11]: 103%
IC50 [1, 9]: 19.9 µM
Activity against asexual parasites Efficacy (% response) [4]: -103.99 % response
IC50 [4]: 10 µM

CNCCCN1c2ccccc2CCc2ccccc21 [Desipramine hydrochloride]
Emax [1, 11]: 101%
Activity against asexual parasites Efficacy (% response) [4]: inactive
Activity against asexual parasites IC50 [4]: inactive

CO[C@H]1/C=C\C=C(/C)C(=O)NC2=CC(=O)C(NCCN(C)C)=C(C[C@@H](C)C[C@H](OC)[C@H](O)[C@@H](C)/C=C(\C)[C@@H]1OC(N)=O)C2=O [Alvespimycin]
IC50 [1, 5]: 0.074 µM
IC50 [2, 7]: 0.235 µM
IC50 [3, 12]: 0.094 µM
Emax (HepG2 cells): -94%
IC50 (HepG2 cells): 0.118 µM

CN(C)CCCN1c2ccccc2CCc2ccccc21 [Imipramine hydrochloride]
Activity against asexual parasites Efficacy (% response) [4]: inactive
Activity against asexual parasites IC50 [4]: inactive

CN(C)C/C=C/C(=O)Nc1cc2c(Nc3ccc(F)c(Cl)c3)ncnc2cc1O[C@H]1CCOC1 [Afatinib]
IC50 [1, 5]: 0.935 µM
IC50 [2, 7]: 4.18 µM
IC50 [3, 8]: 2.96 µM
Emax (HepG2 cells): -100%
IC50 (HepG2 cells): 18.7 µM

CCNC(=O)c1noc(-c2cc(C(C)C)c(O)cc2O)c1-c1ccc(CN2CCOCC2)cc1 [NVP-AUY922]
IC50 [1, 5]: 0.047 µM
IC50 [2, 7]: 0.042 µM
IC50 [3, 8]: 0.047 µM
Emax (HepG2 cells): -88%
IC50 (HepG2 cells): 0.148 µM

CN(C)CCCN1c2ccccc2CCc2ccc(Cl)cc21 [Clomipramine hydrochloride]
Activity against asexual parasites Efficacy (% response) [4]: inactive
Activity against asexual parasites IC50 [4]: inactive

C/C=C1\NC(=O)[C@H]2CSSCC/C=C/[C@H](CC(=O)N[C@H](C(C)C)C(=O)N2)OC(=O)[C@H](C(C)C)NC1=O [Romidepsin]
IC50 [1, 6]: 0.264 µM
IC50 [1, 13]: 0.637 µM
IC50 [2, 14]: 0.148 µM
IC50 [3, 12]: 0.187 µM
Emax (HepG2 cells): -98%
IC50 (HepG2 cells): 0.074 µM

COc1ccc(C[C@H](N)C(=O)N[C@H]2[C@@H](O)[C@H](n3cnc4c(N(C)C)ncnc43)O[C@@H]2CO)cc1 [Puromycin]
IC50 [1, 5]: 1.05 µM
IC50 [2, 7]: 1.48 µM
IC50 [3, 8]: 2.64 µM
Emax (HepG2 cells): -71%
IC50 (HepG2 cells): 11.8 µM

CC(CN(C)C)CN1c2ccccc2CCc2ccccc21 (stereo not shown) [Trimipramine maleate, reference compound]
Emax [1, 11]: 47%
IC50 [1, 9]: 22.4 µM
Activity against gametocytes IC50 ([1]; SI Table 3, structure clusters): inactive
Activity against asexual parasites IC50 [4]: inactive
IC50 [4]: 30.7 µM

CCCN1C[C@H](CSC)C[C@@H]2c3cccc4[nH]cc(c34)C[C@H]21 [Pergolide methanesulfonate, reference compound]
Emax [1, 11]: 83.5%
IC50 [1, 9]: 22.4 µM
Activity against gametocytes IC50 ([1]; SI Table 3, structure clusters): inactive
Activity against asexual parasites Efficacy (% response) [4]: inactive
Activity against asexual parasites IC50 [4]: inactive

CN(C)CCC=C1c2ccccc2CCc2ccccc21 [Amitriptyline hydrochloride]
Activity against asexual parasites Efficacy (% response) [4]: -82.37 % response
IC50 [4]: 11.2 µM

CO[C@@H]1[C@@H](OC)[C@H](C)[C@@](O)(CC(=O)O)O[C@H]1[C@H](C)[C@H]1O[C@@]2(CC[C@@](C)([C@H]3CC[C@@](C)([C@@H]4O[C@@H]([C@H]5O[C@](C)(O)[C@H](C)C[C@@H]5C)C[C@@H]4O[C@@H]4C[C@H](OC)[C@@H](OC)[C@H](C)O4)O3)O2)C[C@H](O)[C@H]1C [Maduramicin]
IC50 [1, 5]: 0.047 µM
Emax (HepG2 cells): -42%
IC50 (HepG2 cells): 37.2 µM

CN1CCC(=C2c3ccccc3C=Cc3ccccc32)CC1 [Cyproheptadine]
Activity against gametocytes Efficacy (% response) ([1]; SI Table 3, structure clusters): -122.81 % response
Activity against asexual parasites Efficacy (% response) [4]: inactive
Activity against asexual parasites IC50 [4]: inactive

CNCCC=C1c2ccccc2CCc2ccccc21 [Nortriptyline hydrochloride, reference compound]
Emax [1, 11]: 111%
IC50 [1, 9]: 22.4 µM
IC50 [1, 10]: 35.5 µM
Activity against asexual parasites Efficacy (% response) [4]: inactive
Activity against asexual parasites IC50 [4]: inactive

C#Cc1cccc(Nc2ncnc3cc(OC)c(OCCCCCCC(=O)NO)cc23)c1 [CUDC-101]
IC50 [1, 5]: 0.833 µM
fold more potent against HB3 compared to 3D7 gametocytes [2]: 5.5 fold
IC50 [2, 7]: 0.152 µM
IC50 [3, 8]: 0.429 µM
Emax (HepG2 cells): -76%
IC50 (HepG2 cells): 6.79 µM

CN(C)CCCN1c2ccccc2C(C)(C)c2ccccc21 [Dimetacrine, reference compound]
Emax ([1]; Plasmodium falciparum, 3D7, read-out: Activity against gametocytes Efficacy (% response), SI Table 3, structure clusters): 77%
IC50 ([1]; Plasmodium falciparum, 3D7, read-out: Activity against gametocytes IC50, SI Table 3, structure clusters): 22.4 µM
Activity against asexual parasites Efficacy (% response) [4]: inactive
Activity against asexual parasites IC50 [4]: inactive

COc1cc(NC(C)CCCN)c2ncccc2c1 (stereo not shown) [Primaquine]
IC50 ([2]; read-out: HB3-gametocytes IC50, strain profiling, 11 concentrations, 1:3 dilution, three times, listed as PQ): 0.68 µM
IC50 ([3]; Plasmodium falciparum, DD2, read-out: Dd2-gametocytes IC50, strain profiling, 11 concentrations, 1:3 dilution, three times): 1.08 µM
IC50 ([3]; read-out: Dd2-gametocytes IC50, strain profiling, 11 concentrations, 1:3 dilution, three times, listed as PQ): 1.08 µM
IC50 (HepG2 cells): 17.8 µM

CC(C)C[C@H](NC(=O)[C@H](Cc1ccccc1)NC(=O)c1cnccn1)B(O)O [Bortezomib]
IC50 [1, 5]: 0.118 µM
IC50 [2, 7]: 0.074 µM
IC50 [3, 8]: 0.094 µM
Emax (HepG2 cells): -82%
IC50 (HepG2 cells): 0.148 µM

OC(c1cc(C(F)(F)F)nc2c(C(F)(F)F)cccc12)C1CCCCN1 (stereo not shown) [Mefloquine]
IC50 [1, 5]: 0.833 µM
Emax (HepG2 cells): -97%
IC50 (HepG2 cells): 29.6 µM

CC[C@@H](C(=O)O)[C@@H]1O[C@@H]([C@@H](C)[C@H](O)[C@H](C)C(=O)[C@H](CC)[C@H]2O[C@]3(C=C[C@@H](O)[C@]4(CC[C@@](C)([C@H]5CC[C@](O)(CC)[C@H](C)O5)O4)O3)[C@H](C)C[C@@H]2C)[C@@H](C)C[C@@H]1C [Narasin]
IC50 [1, 5]: 0.05 µM
IC50 [2, 7]: 0.136 µM
IC50 [3, 12]: 0.076 µM
Emax (HepG2 cells): -98%
IC50 (HepG2 cells): 27 µM

CC[C@@H](C(=O)[C@@H](C)[C@@H](O)[C@H](C)[C@@H]1O[C@@H]([C@@H](CC)C(=O)O)CC[C@@H]1C)[C@H]1O[C@]2(C=C[C@@H](O)[C@]3(CC[C@@](C)([C@H]4CC[C@](O)(CC)[C@H](C)O4)O3)O2)[C@H](C)C[C@@H]1C [Salinomycin sodium]
IC50 [1, 6]: 0.118 µM
IC50 [1, 13]: 0.194 µM
IC50 [2, 14]: 0.372 µM
IC50 [3, 12]: 0.296 µM
Emax (HepG2 cells): -69%
IC50 (HepG2 cells): 29.6 µM

COCCn1c2c([n+](Cc3cnccn3)c1C)C(=O)c1ccccc1C2=O [YM155]
IC50 [1, 5]: 0.372 µM
IC50 [2, 7]: 0.304 µM
IC50 [3, 8]: 0.526 µM
Emax (HepG2 cells): -92%
IC50 (HepG2 cells): 4.69 µM

CC1=C(CO)C(=O)O[C@@H]([C@@H](C)[C@H]2CC[C@H]3[C@@H]4C[C@H]5O[C@]56[C@@H](O)C=CC(=O)[C@]6(C)[C@H]4CC[C@]23C)C1 [Withaferin A]
IC50 [1, 5]: 0.372 µM
IC50 [2, 7]: 1.33 µM
IC50 [3, 8]: 0.372 µM
Emax (HepG2 cells): -80%
IC50 (HepG2 cells): 9.35 µM

CN(C)CCCN1c2ccccc2CCc2ccc(Cl)cc21 [Clomipramine]
Activity against asexual parasites Efficacy (% response) [4]: inactive
Activity against asexual parasites IC50 [4]: inactive
